Assays:
Assay in all cases: relative viability (nuclei count vs DMSO), 5 days (fraction); higher = more cells survive
Linsitinib + Pictilisib = compound: C[C@]1(O)C[C@@H](c2nc(-c3ccc4ccc(-c5ccccc5)nc4c3)c3c(N)nccn32)C1 [Linsitinib] + CS(=O)(=O)N1CCN(Cc2cc3nc(-c4cccc5[nH]ncc45)nc(N4CCOCC4)c3s2)CC1 [Pictilisib] (partner 1 µM)
How it was run: (§1)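 Cells from lung cancer lines were seeded into 1536-well plates and, one day later, dosed by pin tool. Treatments were either a single drug or a fixed dose of an anchor drug with five library-drug doses (not always all listed) in √10 steps. After 5 days, nuclei were stained in a one-step fixation (final 0.05% Triton X-100, 1% formaldehyde, 1 ug/ml Hoechst) and counted on 4× images, and relative viability is the treated-to-vehicle nuclei ratio, as the median of duplicate plates.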

Linsitinib + Alpelisib = compound: C[C@]1(O)C[C@@H](c2nc(-c3ccc4ccc(-c5ccccc5)nc4c3)c3c(N)nccn32)C1 [Linsitinib] + Cc1nc(NC(=O)N2CCC[C@H]2C(N)=O)sc1-c1ccnc(C(C)(C)C(F)(F)F)c1 [Alpelisib] (partner 2 µM)
How it was run: as §1

Linsitinib + Dasatinib = compound: C[C@]1(O)C[C@@H](c2nc(-c3ccc4ccc(-c5ccccc5)nc4c3)c3c(N)nccn32)C1 [Linsitinib] + Cc1nc(Nc2ncc(C(=O)Nc3c(C)cccc3Cl)s2)cc(N2CCN(CCO)CC2)n1 [Dasatinib] (partner 0.075 µM)
How it was run: as §1

Ispinesib + Palbociclib = compound: Cc1ccc(C(=O)N(CCCN)[C@@H](c2nc3cc(Cl)ccc3c(=O)n2Cc2ccccc2)C(C)C)cc1 [Ispinesib] + CC(=O)c1c(C)c2cnc(Nc3ccc(N4CCNCC4)cn3)nc2n(C2CCCC2)c1=O [Palbociclib] (partner 0.5 µM)
How it was run: as §1

| Cell Line | relative viability (Linsitinib + Pictilisib; first compound 0.01 µM) | relative viability (Linsitinib + Pictilisib; first compound 0.03162 µM) | relative viability (Linsitinib + Pictilisib; first compound 0.1 µM) | relative viability (Linsitinib + Pictilisib; first compound 0.3162 µM) | relative viability (Linsitinib + Pictilisib; first compound 1 µM) | relative viability (Linsitinib + Alpelisib; first compound 0.01 µM) | relative viability (Linsitinib + Alpelisib; first compound 0.03162 µM) | relative viability (Linsitinib + Alpelisib; first compound 0.1 µM) | relative viability (Linsitinib + Alpelisib; first compound 0.3162 µM) | relative viability (Linsitinib + Alpelisib; first compound 1 µM) | relative viability (Linsitinib + Dasatinib; first compound 0.01 µM) | relative viability (Linsitinib + Dasatinib; first compound 0.03162 µM) | relative viability (Linsitinib + Dasatinib; first compound 0.1 µM) | relative viability (Linsitinib + Dasatinib; first compound 0.3162 µM) | relative viability (Linsitinib + Dasatinib; first compound 1 µM) | relative viability (Ispinesib + Palbociclib; first compound 0.001 µM) | relative viability (Ispinesib + Palbociclib; first compound 0.003162 µM) | relative viability (Ispinesib + Palbociclib; first compound 0.01 µM) | relative viability (Ispinesib + Palbociclib; first compound 0.03162 µM) | relative viability (Ispinesib + Palbociclib; first compound 0.1 µM) |
| --- | --- | --- | --- | --- | --- | --- | --- | --- | --- | --- | --- | --- | --- | --- | --- | --- | --- | --- | --- | --- |
| 201T | 0.706 | 0.703 | 0.688 | 0.616 | 0.534 | 1.01 | 1.04 | 1.1 | 1.06 | 1.04 | 0.604 | 0.581 | 0.531 | 0.725 | 0.439 | 0.378 | 0.407 | 0.361 | 0.409 | 0.345 |
| A549 | 0.514 | 0.442 | 0.344 | 0.242 | 0.273 | 0.744 | 0.668 | 0.634 | 0.423 | 0.421 | – | – | – | – | – | – | – | – | – | – |
| A-427 | 0.53 | 0.594 | 0.719 | – | 0.688 | 1.11 | 1.02 | 1.05 | – | 0.997 | 0.712 | 0.78 | 0.723 | – | 0.631 | 0.53 | 0.538 | 0.55 | 0.322 | 0.282 |
| ABC-1 | 0.883 | 0.572 | 0.696 | 0.434 | 0.498 | 0.925 | 0.726 | 0.912 | 0.76 | 0.719 | 0.574 | 0.469 | 0.504 | 0.541 | 0.448 | 0.578 | 0.665 | 0.765 | – | 0.49 |
| BEN | 0.526 | 0.576 | 0.64 | 0.425 | 0.606 | 1.09 | 1.02 | 0.935 | 0.662 | 1.04 | 0.419 | 0.316 | 0.318 | – | 0.352 | 0.463 | 0.514 | 0.478 | 0.47 | 0.372 |
| CAL-12T | 0.44 | 0.368 | 0.585 | 0.379 | 0.336 | 1.18 | 1.18 | 1.24 | 0.99 | 1.07 | 0.362 | 0.359 | 0.485 | 0.178 | 0.273 | 0.452 | 0.409 | 0.29 | 0.177 | 0.195 |
| COR-L23 | 0.769 | 0.924 | 0.652 | 0.393 | 0.341 | 0.725 | 0.907 | 0.769 | 0.623 | 0.55 | 0.424 | 0.456 | 0.416 | 0.375 | 0.346 | 0.261 | 0.267 | 0.217 | 0.148 | 0.171 |
| COR-L 105 | 0.454 | 0.434 | 0.387 | 0.301 | 0.25 | 0.843 | 0.869 | 1.01 | 0.761 | 0.829 | 0.321 | 0.374 | 0.294 | 0.289 | 0.252 | 0.439 | 0.39 | 0.369 | 0.362 | 0.305 |
| Calu-6 | 0.878 | 0.805 | 0.916 | 0.748 | 0.716 | 1.01 | 0.919 | 1.04 | 1.03 | 0.794 | – | – | – | – | – | – | – | – | – | – |
| ChaGo-K-1 | 0.809 | 0.665 | 0.576 | 0.317 | 0.666 | – | – | – | – | – | 0.649 | 0.5 | 0.588 | 0.415 | 0.588 | 0.8 | 1.01 | 1.11 | 0.985 | 0.845 |
| EBC-1 | 0.499 | 0.347 | 0.381 | 0.299 | 0.246 | 0.758 | 0.841 | 1.05 | 0.601 | 0.814 | – | – | – | – | – | – | – | – | – | – |
| EKVX | 0.464 | 0.39 | 0.43 | 0.502 | 0.375 | 0.842 | 0.848 | 0.856 | 0.901 | 0.756 | 0.603 | 0.625 | 0.532 | 0.513 | 0.5 | 0.456 | – | 0.409 | 0.463 | 0.295 |
| EMC-BAC-2 | 0.47 | 0.489 | 0.496 | 0.455 | 0.412 | 0.7 | 0.689 | 0.748 | 0.613 | 0.667 | 0.318 | 0.323 | 0.289 | 0.445 | 0.197 | 0.509 | 0.556 | 0.506 | 0.432 | 0.431 |
| EPLC-272H | 0.339 | 0.306 | 0.286 | – | 0.23 | 0.909 | 0.942 | 0.87 | – | 0.925 | 0.359 | 0.407 | – | – | 0.261 | 0.341 | 0.306 | 0.329 | 0.328 | 0.149 |
| H3255 | 0.571 | 0.52 | 0.566 | 0.468 | 0.45 | 0.605 | 0.858 | 0.732 | 0.591 | 0.771 | 0.347 | 0.369 | 0.347 | 0.334 | 0.344 | 0.309 | 0.339 | 0.347 | 0.294 | 0.291 |
| HARA | 0.399 | 0.373 | 0.248 | 0.369 | 0.166 | 0.802 | 0.768 | 0.732 | 0.409 | 0.716 | 0.278 | 0.213 | 0.294 | – | 0.204 | 0.299 | 0.262 | 0.284 | 0.256 | 0.225 |
| HCC-15 | 0.743 | 0.703 | 0.824 | 0.234 | 0.583 | 0.918 | 0.887 | 0.952 | 0.582 | 0.775 | 0.62 | 0.559 | 0.519 | – | 0.35 | 0.518 | 0.847 | 0.899 | 0.644 | 0.418 |
| HCC-44 | 0.579 | 0.634 | 0.66 | 0.317 | 0.311 | 0.751 | 0.677 | 0.691 | 0.499 | 0.606 | – | – | – | – | – | 0.996 | 0.985 | 0.978 | 0.999 | 0.948 |

From the supplement of paper PMC10307832
